Converted amounts (≈) assume the structure as drawn.
Key:
[1] = test system: M. tuberculosis DNA gyrase GyrA, A90V; type: cell-based, Mycobacterium tuberculosis
[2] = test system: M. tuberculosis DNA gyrase GyrA, G88C; type: cell-based, Mycobacterium tuberculosis
[3] = test system: M. tuberculosis ATCC 35826 (CS resistance); assay: microbe, parasite or virus in culture; type: cell-based; conditions: Mycobacterium tuberculosis, ATCC35826
[4] = test system: M. tuberculosis ATCC 3583 (INH resistance); assay: microbe, parasite or virus in culture; type: cell-based; conditions: Mycobacterium tuberculosis, ATCC3583, read-out: MIC90, ATCC 3583 (INH resistance)
[5] = test system: M. tuberculosis QcrB D317T; type: cell-based, Mycobacterium tuberculosis
[6] = test system: M. tuberculosis ATCC 35838 (Rif resistance); assay: microbe, parasite or virus in culture; type: cell-based; conditions: Mycobacterium tuberculosis, ATCC35838
[7] = test system: M. tuberculosis MmpL3, G253E; type: cell-based, Mycobacterium tuberculosis
[8] = test system: M. tuberculosis MmpL3, G758A/G253E; type: cell-based, Mycobacterium tuberculosis

Row | Structure (SMILES) | MIC90, DNA gyrase GyrA, A90V [1] [µM] | MIC90, DNA gyrase GyrA, G88C [2] [µM] | MIC90 [3] [µM] | MIC90 [4] [µM] | MIC90, QcrB D317T [5] [µM] | MIC90 [6] [µM] | MIC90, MmpL3, G253E [7] [µM] | MIC90, MmpL3, G758A/G253E [8] [µM]
1 | COc1c(N2C[C@@H]3CCCN[C@@H]3C2)c(F)cc2c(=O)c(C(=O)O)cn(C3CC3)c12 [Moxifloxacin, moxifloxacin] | 7.8 (≈ 3.13 µg/mL) | 0.49 (≈ 0.197 µg/mL) |  |  |  |  |  | 
2 | Cc1nnc(-c2noc3c(F)c4c(cc23)CC2(C(=O)NC(=O)NC2=O)[C@H]2[C@H](C)O[C@H](C)CN42)o1 [Compound 22] | 0.98 (≈ 0.461 µg/mL) | 0.98 (≈ 0.461 µg/mL) |  |  |  |  |  | 
3 | CO[C@H]1/C=C/O[C@@]2(C)Oc3c(C)c(O)c4c(O)c(c(/C=N/N5CCN(C)CC5)c(O)c4c3C2=O)NC(=O)/C(C)=C\C=C\[C@H](C)[C@H](O)[C@@H](C)[C@@H](O)[C@@H](C)[C@H](OC(C)=O)[C@@H]1C [Rif, rifampicin] | 0.0023 (≈ 0.00189 µg/mL) | 0.0023 (≈ 0.00189 µg/mL) | 0.001 (≈ 0.000823 µg/mL) | 0.006 (≈ 0.00494 µg/mL) | 0.0046 (≈ 0.00379 µg/mL) | > 0.1 | 0.001 (≈ 0.000823 µg/mL) | 0.001 (≈ 0.000823 µg/mL)
4 | CC(C)=CCC/C(C)=C/CNCCNC1C2CC3CC(C2)CC1C3 (stereo not shown) [SQ109] |  |  |  |  |  |  | 2.0 (≈ 0.661 µg/mL) | 2.0 (≈ 0.661 µg/mL)
5 | NNC(=O)c1ccncc1 [Isoniazid, isoniazid] |  |  | 3.4 (≈ 0.466 µg/mL) | > 62.5 |  | 7.8 (≈ 1.07 µg/mL) |  | 
6 | C[C@H]1COc2c(N3CCN(C)CC3)c(F)cc3c(=O)c(C(=O)O)cn1c23 [Levofloxacin] | 16 (≈ 5.78 µg/mL) | 2.0 (≈ 0.723 µg/mL) |  |  |  |  |  | 

— article PMC9017349, “Spiropyrimidinetriones: a Class of DNA Gyrase Inhibitors with Activity against Mycobacterium tuberculosis and without Cross-Resistance to Fluoroquinolones” (Antimicrobial Agents and Chemotherapy, 2022)
